Data set [1] relates to Mus musculus. The experiment in a line: Antiallodynic activity in ip dosed NMRI mouse model of spared nerve injury-induced mechanical allodynia assessed as pain relief administered 14 days post spared nerve injury surgery measured at 15 to 60 mins post dose by Von Frey filament assay. Type of data set: functional.
Data set [2] deals with Mus musculus. The data set is described as follows: Antiallodynic activity in NMRI mouse model of spared nerve injury-induced mechanical allodynia assessed as pain relief at 585 umol/kg, ip administered 14 days post spared nerve injury surgery measured at 30 mins post dose Von Frey filament assay. The data set is classed as functional, organism-based.
For data set [3], the system named is Mus musculus. The experiment in a line: Antiallodynic activity in NMRI mouse model of spared nerve injury-induced mechanical allodynia assessed as pain relief at 585 umol/kg, ip administered 14 days post spared nerve injury surgery measured at 60 mins post dose by Von Frey filament assay. Type of data set: functional, organism-based.
The subject of data set [4] is Mus musculus. The experiment in a line: Antiallodynic activity in NMRI mouse model of spared nerve injury-induced mechanical allodynia assessed as pain relief at 585 umol/kg, ip administered 14 days post spared nerve injury surgery measured at 180 mins post dose by Von Frey filament assay. The data set is classed as functional, organism-based.
Data set [5] can be described thus: Half life in NMRI mouse plasma at 4 uM after 180 mins by LC-MS/MS analysis. Type of data set: ADME, cell-free.
Data set [6] has as its system Mus musculus. The experiment in a line: Antiallodynic activity in NMRI mouse model of spared nerve injury-induced mechanical allodynia assessed as increase in mechanical threshold at 185 nmol/kg, ip administered 14 days post spared nerve injury surgery measured at 15 to 60 mins post dose by Von Frey filament assay. The data set is classed as functional, organism-based.

Data set [7] has as its system Mus musculus. The experiment in a line: Antiallodynic activity in NMRI mouse model of spared nerve injury-induced mechanical allodynia assessed as pain relief at 12 umol/kg, ip administered 14 days post spared nerve injury surgery measured at 45 mins post dose by Von Frey filament assay. Type of data set: functional, organism-based.
A short description of data set [8]: Half life in human plasma at 4 uM after 180 mins by LC-MS/MS analysis. The data set is classed as ADME, cell-free.
A short description of data set [9]: Apparent permeability from apical to basolateral side in human Caco2 cells at 100 uM after 15 to 120 mins by LC-MS analysis. The data set is classed as ADME, cell-based. The settings on record: Caco-2.
Data set [10] can be described thus: Apparent permeability from apical to basolateral side in human Caco2 cells assessed as mass balance at 100 uM after 15 to 120 mins by LC-MS analysis. The settings on record: Caco-2, read-out: Activity. Type of data set: ADME, cell-based.
Data set [11] can be described thus: Apparent permeability from basolateral to apical side in human Caco2 cells at 100 uM after 15 to 120 mins by LC-MS analysis. Type of data set: ADME, cell-based. The settings on record: Caco-2.
The nature of data set [12]: Apparent permeability from basolateral to apical side in human Caco2 cells assessed as mass balance at 100 uM after 15 to 120 mins by LC-MS analysis. The data set is classed as ADME, cell-based. The settings on record: Caco-2, read-out: Activity. For orientation: Caco-2 monolayers are a common model of the intestinal barrier.
A short description of data set [13]: Efflux ratio of apparent permeability from basolateral to apical over apical to basolateral side in human Caco2 cells at 100 uM after 15 to 120 mins by LC-MS analysis. The data set is classed as ADME, cell-based. The settings on record: Caco-2.
A short description of data set [14]: Cytotoxicity against Sprague-Dawley rat primary cortical cells assessed as reduction in […] at 10^-5 to 10^-9 M after 24 hrs by LDH assay. Type of data set: cell-based.
Data set [15] in a line: Cytotoxicity against Sprague-Dawley rat primary cortical cells assessed as reduction in cell viability at 10^-5 to 10^-9 M after 24 hrs by MTT assay. The data set is classed as cell-based. Background: Formazan colour is commonly taken as a measure of viable cells.
The subject of data set [16] is Mus musculus. The data set is described as follows: Antiallodynic activity in ip dosed NMRI mouse model of spared nerve injury-induced mechanical allodynia assessed as increase in mechanical threshold administered 14 days post spared nerve injury surgery by Von Frey filament assay. Type of data set: functional, organism-based.
The subject of data set [17] is Mus musculus. The data set is described as follows: Antiallodynic activity in NMRI mouse model of spared nerve injury-induced mechanical allodynia assessed as increase in mechanical threshold at 185 to 1850 nmol/kg, ip administered 14 days post spared nerve injury surgery measured at 15 to 60 mins post dose by Von Frey filament assay. The data set is classed as functional, organism-based.

For data set [18], the system named is Mus musculus. The experiment in a line: Antiallodynic activity in NMRI mouse model of spared nerve injury-induced mechanical allodynia assessed as increase in mechanical threshold at 1.85 to 1850 nmol/kg, ip administered 14 days post spared nerve injury surgery measured at 30 mins post dose by Von Frey filament assay. Type of data set: functional, organism-based.

The test system of data set [19] is Mus musculus. The data set is described as follows: Antiallodynic activity in NMRI mouse model of spared nerve injury-induced mechanical allodynia assessed as increase in mechanical threshold at 1.85 to 1850 nmol/kg, ip administered 14 days post spared nerve injury surgery measured at 45 mins post dose by Von Frey filament assay. The data set is classed as functional, organism-based.

Data set [20] has as its system Mus musculus. The data set is described as follows: Potency index, ratio of gabapentin ED50 to compound ED50 for antiallodynic activity in ip dosed NMRI mouse model of spared nerve injury-induced mechanical allodynia by Von Frey filament assay. The data set is classed as functional.
The test system of data set [21] is Mus musculus. The data set is described as follows: Antiallodynic activity in NMRI mouse model of spared nerve injury-induced mechanical allodynia assessed as increase in mechanical threshold at 185 nmol/kg, ip administered 14 days post spared nerve injury surgery and co-treated with 1850 nmol/kg, ip D-SP1-7 by Von Frey filament assay. Type of data set: functional, organism-based.

Data set [22] concerns Mus musculus. The experiment in a line: Potency index, ratio of morphine ED50 to compound ED50 for antiallodynic activity in ip dosed NMRI mouse model of spared nerve injury-induced mechanical allodynia by Von Frey filament assay. Type of data set: functional.

Active and inactive are the calls of the source. Where only a bound is given, the exact number is not on record here.

Broadly, the ED50 is the dose that gives a 50% effect, or the effect in half of the subjects. As for `NCC1(CC(=O)O)CCCCC1` [GABAPENTIN], the ED50 in [1] came out at 336 µmol/kg. Moreover, the outcome in data set [2] and in data set [3] was Active. Also, the result in [4] was inactive.
For orientation: half-life means the time needed for the level to fall by half in the phase considered. A low value points to fast loss. Compound H-RPKPQQF-NH2 yielded a half-life at 4 µM in [5] of 6.4 min. Further, in [6], the result was Active.
On to `CN1CC[C@]23c4c5ccc(O)c4O[C@H]2[C@@H](O)C=C[C@H]3[C@H]1C5` [MORPHINE], for which the ED50 in data set [1] is 6.5 µmol/kg. Moreover, in data set [7], the result was Active.
What is called Papp A→B is the apparent permeability from the apical to the basolateral side of a cell layer. One may read the Papp B→A as the apparent permeability from the basolateral to the apical side of a cell layer. One may read the efflux ratio as a quotient of directional permeabilities that is used to spot active efflux. Regarding `NC(=O)[C@H](Cc1ccccc1)NC(=O)c1[nH]cnc1-c1ccccc1`, the half-life at 4 µM is at least 180 min in data set [5] and above 180 min in data set [8]. For the same compound, the apparent permeability from apical to basolateral (Papp A→B) at 100 µM in data set [9] is 0.84 ×10⁻⁶ cm/s. For the same compound, the recovery at 100 µM in data set [10] was found to be 65%; in [12], 67%. Besides, the basolateral-to-apical permeability (Papp B→A) at 100 µM in data set [11] came to 16 ×10⁻⁶ cm/s. For the same compound, the efflux ratio at 100 µM in [13] is 19. Besides, the values for the Activity entry in data set [14], in data set [15] and in [16] were “Non-Toxic”, “Non-Toxic” and “Dose-dependent effect”, respectively. Moreover, the result in data set [17], in data set [18] and in data set [6] was Active. For the same compound, the result in [19] and in data set [21] was inactive. Besides, the ED50 in [1] turned out to be 0.21 µmol/kg. For the same compound, the “Ratio ED50” value was found to be 1600 in data set [20] and 30 in [22].
H-RPKPQQF-OH: the half-life at 4 µM in data set [5] is 4.4 min.
For the compound `OC[C@@H](O)[C@@H](O)[C@H](O)[C@H](O)CO` [MANNITOL], in data set [9], the Papp A→B at 100 µM was found to be 0.1 ×10⁻⁶ cm/s. In addition, the values for the recovery at 100 µM in data set [10] and in data set [12] were 97 to 101% and 99 to 103%, respectively. Further, in data set [11], the apparent permeability from basolateral to apical (Papp B→A) at 100 µM turned out to be 0.2 ×10⁻⁶ cm/s. For the same compound, in data set [13], the efflux ratio at 100 µM was determined as 1.4.

The values are drawn from ChEMBL document CHEMBL4118280, “An imidazole based H-Phe-Phe-NH2 peptidomimetic with anti-allodynic effect in spared nerve injury mice” (Bioorg Med Chem Lett, 2018).
